“Also recorded” adds a separate entry of the source. Like-named read-outs stand apart in the source and are kept apart here.
Columns and labels:
[1] = system: patients with major depressive disorder (MDD); conditions: cited from earlier work; for rates of gastrointestinal adverse reactions compared to placebo, words: 15 most commonly used antidepressants in MDD, Oliva V, et al. 2021; for gastrointestinal tolerability among antidepressants, words: Oliva V. et al. 2021 meta-analysis in MDD
[2] = system: participants with major depressive disorder (MDD); test: Treatment-emergent adverse events (TEAEs) and serious AEs in study NCT04476030, safety set; type: in vivo, human; conditions: one patient, about 1 hour after zuranolone 50 mg on Day 7; resolved within 22 minutes
Protocol: A randomized, double-blind, parallel-group, active/placebo-controlled study (NCT04476030) in participants with major depressive disorder (MDD) was conducted. The study evaluated the efficacy and safety of zuranolone 50 mg co-initiated with standard-of-care (SOC) antidepressant therapies (ADTs) (zuranolone+ADT) vs placebo co-initiated with SOC ADT (placebo+ADT) in adults with MDD. Patients were randomized 1:1 to once-daily, blinded zuranolone +ADT or placebo+ADT for 14 days then continued open-label SOC ADT for 28 more days.
An AE could therefore be any unfavorable and unintended sign (including an abnormal laboratory finding), symptom or disease temporally associated with the use of a medicinal (investigational) product whether or not related to the medicinal (investigational) product. In clinical studies, an AE could include an undesirable medical condition occurring at any time, including baseline or washout periods, even if no study treatment had been administered.
A treatment emergent adverse event (TEAE) was defined as an AE with onset after the start of investigational product (IP), or any worsening of a pre-existing medical condition/AE with onset after the start of IP and throughout the study. The term IP included any Sage IP, a comparator, or a placebo administered in a clinical study. […]

In the case of COc1ccc2cccc(CCNC(C)=O)c2c1 [agomelatine], the “rates of gastrointestinal adverse reactions compared to placebo, words” value (shortened to “rates … compared to placebo, words”) [1] is given as “higher rates of gastrointestinal adverse reactions”.
In the case of CN[C@H]1CC[C@@H](c2ccc(Cl)c(Cl)c2)c2ccccc21 [sertraline], the “rates … compared to placebo, words” value [1] is given as “higher rates of gastrointestinal adverse reactions”, the “gastrointestinal tolerability among antidepressants, words” value [1] is given as “least tolerated antidepressants on the gastrointestinal tract; also recorded: least tolerated antidepressants on the GI tract” and the “incidence of diarrhea, words” value ([1]; compared to other SSRIs and venlafaxine, Gartlehner G, et al. 2011) is given as “higher incidence of diarrhea”.
In the case of COc1ccc(C(CN(C)C)C2(O)CCCCC2)cc1 (stereo not drawn) [venlafaxine], the “rates … compared to placebo, words” value [1] is given as “higher rates of gastrointestinal adverse reactions” and the “rates of nausea and vomiting, words” value ([1]; compared to SSRIs and duloxetine, Gartlehner G, et al. 2011) is given as “higher rates of nausea and vomiting”.
For Fc1ccc([C@@H]2CCNC[C@H]2COc2ccc3c(c2)OCO3)cc1 [paroxetine], the “rates … compared to placebo, words” value [1] is listed as “higher rates of gastrointestinal adverse reactions”.
For CN(C)CC(c1ccc(O)cc1)C1(O)CCCCC1 (stereo not drawn) [desvenlafaxine], the “rates … compared to placebo, words” value [1] is given as “higher rates of gastrointestinal adverse reactions”.
For CCOc1ccccc1OC(c1ccccc1)C1CNCCO1 (stereo not drawn) [reboxetine], the “rates … compared to placebo, words” value [1] is listed as “higher rates of gastrointestinal adverse reactions”.
For CN1CCN2c3ncccc3Cc3ccccc3C2C1 (stereo not drawn) [mirtazapine], the “rates … compared to placebo, words” value [1] is listed as “higher rates of gastrointestinal adverse reactions”.
With C[C@@]1(O)CC[C@H]2[C@H](CC[C@@H]3[C@@H]2CC[C@]2(C)[C@@H](C(=O)Cn4cc(C#N)cn4)CC[C@@H]32)C1 [zuranolone] the “serious TEAE assessed as related to zuranolone by the investigator” value [2] was “seizure-like phenomenon; also recorded: seizure-like phenomena”.
In the case of Cc1ccc(Sc2ccccc2N2CCNCC2)c(C)c1 [vortioxetine], the “rates … compared to placebo, words” value [1] is listed as “higher rates of gastrointestinal adverse reactions”.
In the case of CN(C)CCC[C@@]1(c2ccc(F)cc2)OCc2cc(C#N)ccc21 [escitalopram], the “rates … compared to placebo, words” value [1] is given as “higher rates of gastrointestinal adverse reactions”, the “gastrointestinal tolerability among antidepressants, words” value [1] is given as “least tolerated antidepressants on the gastrointestinal tract” and the “gastrointestinal tolerability among antidepressants, words” value ([1]; listed as Escitalopram) is given as “least tolerated antidepressants on the GI tract”.
In the case of CN(C)CCCC1(c2ccc(F)cc2)OCc2cc(C#N)ccc21 (stereo not drawn) [citalopram], the “rates … compared to placebo, words” value [1] is given as “higher rates of gastrointestinal adverse reactions”.
For CNCCC(Oc1ccc(C(F)(F)F)cc1)c1ccccc1 (stereo not drawn) [fluoxetine], the “rates … compared to placebo, words” value [1] is listed as “higher rates of gastrointestinal adverse reactions”.
In the case of CCN(CC)C(=O)[C@@]1(c2ccccc2)C[C@H]1CN [levomilnacipran], the “rates … compared to placebo, words” value [1] is given as “higher rates of gastrointestinal adverse reactions”.
For CNCC[C@H](Oc1cccc2ccccc12)c1cccs1 [duloxetine], the “rates … compared to placebo, words” value [1] is listed as “higher rates of gastrointestinal adverse reactions”.
For CC(NC(C)(C)C)C(=O)c1cccc(Cl)c1 (stereo not drawn) [bupropion], the “rates … compared to placebo, words” value [1] is listed as “higher rates of gastrointestinal adverse reactions”.
For COCCCC/C(=N\OCCN)c1ccc(C(F)(F)F)cc1 [fluvoxamine], the “rates … compared to placebo, words” value [1] is listed as “higher rates of gastrointestinal adverse reactions”.

— patent US20250170149A1, “NEUROACTIVE STEROIDS FOR TREATMENT OF GASTROINTESTINAL DISEASES OR CONDITIONS” (Sage Therapeutics, Inc., priority 2022, published 2025)
